Where two headings read alike, the source gives them in different places.
How the values were obtained:
C3b = target: T1, C3b (Homo sapiens, UniProt P01024); test: SPR single-cycle kinetic analysis of compstatin analogs on immobilized C3b; settings: C3b surface 3000-5000 RU, 25° C., PBS-T, 1:1 binding model
T1 construct: a two-chain molecule consisting of a β chain (residues 1 to about 645) and an α-chain (residues 650-1,641)
Method: Individual injections within a cycle were 2 min long with a 5-min dissociation between injections. After the end of the last injection, a 40-min dissociation time was allowed. […] Each assay was performed at least twice.

[1] = system: complement activation initiated via the classical pathway; test: ELISA of immune complex-induced complement activation (classical pathway) in human plasma; assay type: biochemical
Method: Each peptide was dissolved in water, and its concentration was determined by Nanodrop using the absorbance at 280 nm. […] The percent inhibition was plotted against the peptide concentration, and the resulting data set was fitted to the logistic dose-response function to obtain IC50 values (FIG. 4).

[2] = NHP; cited from earlier work
[3] = Plasma protein binding by rapid equilibrium dialysis (RED); assay type: in vitro ADME; settings: human, 37° C.; for fraction unbound at 24 h, 5 μM: peptide 5 μM; for fraction unbound at 24 h, 10 μM: peptide 10 μM
Method: A rapid equilibrium dialysis (RED) device with inserts (MWCO 8 K) was used (Thermo Scientific). C3-depleted serum (product no. A314) was purchased from Complement Technology, Tyler, Tex. Purified C3 (Complement Technology, A113c) was added to C3-depleted serum at a defined, physiologically relevant concentration (5 μM) to maintain the sample matrix and inhibitor-target ratio in comparative experiments (referred to as C3-positive serum).
Equilibrium dialysis using RED device was performed to determine the plasma protein binding. The inserts were soaked in water for 10 min before discarding the water (twice), and then used immediately (Waters et al., 2008, J. Pharm. Sci. 97, 4586). A mixture of 90 μL C3-depleted or C3-positive serum and 10 μL compstatin sample (5 or 10 μM) in PBS buffer (10% DMSO, 0.5% Tween 20, 0.2% sodium azide) was placed in the plasma chamber, and 300 μL PBS buffer (1% DMSO and 0.05% Tween 20) was placed in the buffer chamber. The final DMSO concentration of the dialysis system was 1%. The plate was covered with a sealing tape and incubated at 37° C. on an orbital shaker (200 rpm) for 24 h. Each sample was analyzed at least twice.
A 50-μL aliquot of each post-dialysis sample from both the plasma and buffer chambers was pipetted into separate LoBind tubes (Eppendorf). The samples from plasma chambers were diluted with 50 μL PBS, while samples from buffer chambers were diluted with C3-depleted, or C3 positive serum (matrix match). All samples were diluted to 100 μL using 4% H3PO4 to dissociate the peptides. […] The eluent was injected into the UPLC-HDMS system consisting of an online ACQUITY UPLC (Waters BEH C18 column, 130 Å, 1.7 μm, 2.1 mm×150 mm) coupled to a SYNAPT G2-S HDMS instrument equipped with an ESI source (capillary voltage was set to 3.2 kV, the cone voltage to 30 V and the source temperature to 120° C.). MS peak areas of the peptide were determined by integration for the quantification (Qu et al., 2013, supra). The unbound fraction of the peptide in plasma (% free) was calculated from the ratio of the buffer side response to the plasma side response. The bound fraction of the compound was calculated as follows: % bound=100−% free.

C3 = C3 (Homo sapiens, UniProt P01024); settings: versus earlier compstatin analogs, backbone N-methylation; cited from earlier work
[4] = in human; cited from earlier work
human serum albumin = human serum albumin (Homo sapiens, UniProt P02768); settings: cited from earlier work
baboon albumin = test: SPR of albumin binding to immobilized ABM2-Cp20 (baboon albumin); settings: baboon albumin 6.3-100 μM over immobilized biotinylated ABM2-Cp20; read-out: Apparent binding affinity
Method: Streptavidin was immobilized on all flow cells of CM5 sensor chips (GE Healthcare) using standard amine coupling under 30° C. […] Sets of five increasing concentrations (6.3-100 μM) of albumin from different species (human, mouse, bovine, rabbit and baboon) were injected over the chip surface (FIG. 2). Data were recorded at 25° C. using PBS-T (10 mM sodium phosphate, 150 mM NaCl, 0.005% Tween-20, pH 7.4) as running buffer. Data were processed in Scrubber (v2.0c; Bio-Logic Software, Campbell, Australia); the signals from an untreated flow cell and buffer blank injections were subtracted. Apparent binding affinities (KD app) were calculated by fitting the steady state responses to a single-binding-site model.

[5] = target: human serum albumin (HSA) (Homo sapiens, UniProt P02768); test: SPR competition between immobilized ABM2-Cp20 and soluble ibuprofen for HSA; assay type: binding; settings: concluded from ibuprofen (site II ligand) competition
Method: Data were recorded at 25° C. using PBS-T (10 mM sodium phosphate, 150 mM NaCl, 0.005% Tween-20, pH 7.4) as running buffer, and untreated flow cells were used as a reference surface.

[6] = compared with parent peptide
[7] = C3-depleted serum with 5 μM purified C3, 24 h, read-out: C3-positive serum % bound
[8] = C3-depleted serum, 24 h, read-out: C3-depleted serum % bound (converted)
[9] = C3-depleted serum with 5 μM purified C3, 24 h, read-out: C3-positive serum % bound (converted)

T1 sequence (P01024 23-667 limits assumed): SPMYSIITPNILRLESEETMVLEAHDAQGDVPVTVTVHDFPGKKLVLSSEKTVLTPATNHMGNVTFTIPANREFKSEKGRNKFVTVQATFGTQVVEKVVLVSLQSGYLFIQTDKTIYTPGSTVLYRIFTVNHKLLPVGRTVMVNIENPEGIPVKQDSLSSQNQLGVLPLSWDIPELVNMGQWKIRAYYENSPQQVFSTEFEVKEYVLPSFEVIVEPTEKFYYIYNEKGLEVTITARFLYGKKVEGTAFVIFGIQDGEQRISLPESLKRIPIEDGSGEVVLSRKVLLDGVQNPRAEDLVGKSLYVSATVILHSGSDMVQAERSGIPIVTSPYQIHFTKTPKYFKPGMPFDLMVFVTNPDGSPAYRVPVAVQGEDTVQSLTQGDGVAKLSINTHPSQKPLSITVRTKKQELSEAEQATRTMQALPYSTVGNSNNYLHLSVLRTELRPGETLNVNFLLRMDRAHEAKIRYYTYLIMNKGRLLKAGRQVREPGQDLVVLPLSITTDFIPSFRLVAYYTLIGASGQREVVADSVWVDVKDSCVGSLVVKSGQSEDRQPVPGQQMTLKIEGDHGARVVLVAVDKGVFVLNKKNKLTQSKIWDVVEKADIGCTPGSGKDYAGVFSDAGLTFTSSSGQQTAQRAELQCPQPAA
T1 sequence (P01024 749-1663 partner limits assumed): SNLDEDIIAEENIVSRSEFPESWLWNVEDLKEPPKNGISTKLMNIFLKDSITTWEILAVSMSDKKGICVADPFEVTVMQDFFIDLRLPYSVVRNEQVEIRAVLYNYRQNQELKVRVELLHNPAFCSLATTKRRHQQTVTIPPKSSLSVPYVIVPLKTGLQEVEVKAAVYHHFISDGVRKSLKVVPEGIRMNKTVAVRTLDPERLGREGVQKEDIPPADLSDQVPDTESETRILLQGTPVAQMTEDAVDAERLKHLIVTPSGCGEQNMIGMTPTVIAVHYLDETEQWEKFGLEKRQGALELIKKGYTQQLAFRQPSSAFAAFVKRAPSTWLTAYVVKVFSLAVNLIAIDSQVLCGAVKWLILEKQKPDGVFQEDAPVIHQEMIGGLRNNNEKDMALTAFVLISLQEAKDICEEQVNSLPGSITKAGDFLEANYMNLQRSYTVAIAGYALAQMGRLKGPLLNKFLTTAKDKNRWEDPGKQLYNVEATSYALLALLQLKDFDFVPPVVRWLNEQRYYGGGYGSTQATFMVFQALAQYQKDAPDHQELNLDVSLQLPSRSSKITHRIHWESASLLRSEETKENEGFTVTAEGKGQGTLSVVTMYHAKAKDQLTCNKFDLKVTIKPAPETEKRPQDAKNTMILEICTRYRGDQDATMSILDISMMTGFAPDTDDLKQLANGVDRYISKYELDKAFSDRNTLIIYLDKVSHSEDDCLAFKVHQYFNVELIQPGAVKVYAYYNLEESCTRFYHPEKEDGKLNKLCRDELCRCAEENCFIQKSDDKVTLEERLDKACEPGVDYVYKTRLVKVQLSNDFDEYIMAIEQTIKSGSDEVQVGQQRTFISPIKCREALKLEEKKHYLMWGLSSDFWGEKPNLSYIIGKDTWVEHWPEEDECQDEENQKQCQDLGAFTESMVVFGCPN
C3, sequence (P01024 23-1663): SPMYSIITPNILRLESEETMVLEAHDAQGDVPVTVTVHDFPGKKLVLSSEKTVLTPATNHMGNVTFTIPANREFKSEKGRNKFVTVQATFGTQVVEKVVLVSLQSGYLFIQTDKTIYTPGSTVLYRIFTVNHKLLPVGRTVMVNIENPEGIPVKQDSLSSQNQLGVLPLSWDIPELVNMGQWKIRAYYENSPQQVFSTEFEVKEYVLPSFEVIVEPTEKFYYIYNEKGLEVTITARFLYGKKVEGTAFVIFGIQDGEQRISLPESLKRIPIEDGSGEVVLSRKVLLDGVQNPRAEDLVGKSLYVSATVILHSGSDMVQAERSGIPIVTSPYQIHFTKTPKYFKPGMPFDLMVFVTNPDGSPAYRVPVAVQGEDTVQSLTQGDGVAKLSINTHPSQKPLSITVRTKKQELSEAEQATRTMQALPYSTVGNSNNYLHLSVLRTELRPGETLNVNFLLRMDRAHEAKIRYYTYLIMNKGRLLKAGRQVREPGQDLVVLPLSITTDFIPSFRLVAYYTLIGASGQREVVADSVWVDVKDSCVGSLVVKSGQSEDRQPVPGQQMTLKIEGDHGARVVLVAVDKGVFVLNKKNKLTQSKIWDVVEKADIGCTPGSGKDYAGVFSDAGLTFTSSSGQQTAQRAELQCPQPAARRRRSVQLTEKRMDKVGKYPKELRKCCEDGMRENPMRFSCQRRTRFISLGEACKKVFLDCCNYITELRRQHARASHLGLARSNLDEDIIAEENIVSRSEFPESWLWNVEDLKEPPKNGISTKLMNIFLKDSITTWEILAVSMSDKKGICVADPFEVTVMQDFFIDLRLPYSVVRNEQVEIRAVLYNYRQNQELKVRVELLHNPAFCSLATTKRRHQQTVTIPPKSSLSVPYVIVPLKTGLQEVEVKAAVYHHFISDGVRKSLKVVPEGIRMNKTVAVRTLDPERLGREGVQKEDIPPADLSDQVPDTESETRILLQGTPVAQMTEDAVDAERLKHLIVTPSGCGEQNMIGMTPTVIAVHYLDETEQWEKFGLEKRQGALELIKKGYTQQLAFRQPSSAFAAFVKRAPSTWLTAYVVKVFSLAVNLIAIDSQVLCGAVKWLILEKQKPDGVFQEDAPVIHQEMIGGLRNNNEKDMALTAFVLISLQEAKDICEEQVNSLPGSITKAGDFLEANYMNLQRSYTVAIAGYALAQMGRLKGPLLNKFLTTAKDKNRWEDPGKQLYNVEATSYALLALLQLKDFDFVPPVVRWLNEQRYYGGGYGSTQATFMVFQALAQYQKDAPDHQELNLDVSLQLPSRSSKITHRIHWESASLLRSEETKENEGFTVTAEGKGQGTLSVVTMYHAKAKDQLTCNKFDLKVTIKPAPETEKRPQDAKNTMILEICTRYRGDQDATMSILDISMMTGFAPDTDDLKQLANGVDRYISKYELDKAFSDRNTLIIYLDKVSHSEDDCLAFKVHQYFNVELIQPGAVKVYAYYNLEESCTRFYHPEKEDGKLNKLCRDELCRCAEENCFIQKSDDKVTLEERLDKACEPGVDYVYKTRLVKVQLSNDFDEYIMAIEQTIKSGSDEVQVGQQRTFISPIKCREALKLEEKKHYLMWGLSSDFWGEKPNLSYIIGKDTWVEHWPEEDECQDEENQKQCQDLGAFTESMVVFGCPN
human serum albumin (HSA), sequence (P02768 25-609): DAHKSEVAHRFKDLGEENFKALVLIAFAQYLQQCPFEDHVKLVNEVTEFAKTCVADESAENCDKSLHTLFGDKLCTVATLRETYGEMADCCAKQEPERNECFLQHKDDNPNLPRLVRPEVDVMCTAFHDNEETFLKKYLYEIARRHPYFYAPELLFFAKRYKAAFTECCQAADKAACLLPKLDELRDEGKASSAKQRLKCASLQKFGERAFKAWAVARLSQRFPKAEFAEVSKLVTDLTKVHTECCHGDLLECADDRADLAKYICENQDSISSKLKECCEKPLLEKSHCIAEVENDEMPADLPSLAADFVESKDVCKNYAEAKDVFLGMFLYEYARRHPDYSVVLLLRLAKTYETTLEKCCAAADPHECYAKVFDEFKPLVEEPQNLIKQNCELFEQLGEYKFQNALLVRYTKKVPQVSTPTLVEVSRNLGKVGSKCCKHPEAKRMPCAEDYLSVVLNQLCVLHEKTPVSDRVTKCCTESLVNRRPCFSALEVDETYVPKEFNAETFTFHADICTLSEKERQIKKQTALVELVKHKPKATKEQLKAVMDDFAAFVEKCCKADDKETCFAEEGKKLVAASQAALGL
human serum albumin, sequence (P02768 25-609): as above

Structure (SMILES)	kd (C3b)	IC50 [1]	half-life [2]	fraction unbound at 24 h, 5 μM [3, 7]	fraction unbound at 24 h, 5 μM [3, 8]	fraction unbound at 24 h, 10 μM [3, 9]	fraction unbound at 24 h, 10 μM [3, 8]	other results
CC[C@H](C)[C@H](NC(=O)[C@@H](Cc1ccc(O)cc1)NC(=O)CCCCCOP(=O)(O)OC1CCC(c2ccccc2)(c2ccccc2)CC1)C(=O)N[C@H]1CSSC[C@@H](C(=O)N(C)[C@H](C(N)=O)[C@@H](C)CC)NC(=O)[C@H](CCCNC(=N)N)NC(=O)[C@H](Cc2c[nH]cn2)NC(=O)[C@H](C)NC(=O)CN(C)C(=O)[C@H](Cc2c[nH]c3ccccc23)NC(=O)[C@H](CC(=O)O)NC(=O)[C@H](CCC(N)=O)NC(=O)[C@H](Cc2cn(C)c3ccccc23)NC(=O)[C@H](C(C)C)NC1=O [ABM2-Cp40]	0.5 ± 0.2 10^−3 s^−1	80 ± 30 nM						
CC[C@H](C)[C@H](NC(=O)[C@H](N)Cc1ccc(O)cc1)C(=O)N[C@H]1CSSC[C@@H](C(=O)N(C)[C@H](C(N)=O)[C@@H](C)CC)NC(=O)[C@H](CCCNC(=N)N)NC(=O)[C@H](Cc2c[nH]cn2)NC(=O)[C@H](C)NC(=O)CN(C)C(=O)[C@H](Cc2c[nH]c3ccccc23)NC(=O)[C@H](CC(=O)O)NC(=O)[C@H](CCC(N)=O)NC(=O)[C@H](Cc2cn(C)c3ccccc23)NC(=O)[C@H](C(C)C)NC1=O [Cp40, (D)Tyr-Ile-[Cys-Val-Trp(Me)-Gln-Asp-Trp-Sar-Ala-His-Arg-Cys]-mIle-NH2, reference compound]	1.3 ± 0.2 10^−3 s^−1		12 h					
CC[C@H](C)[C@H](NC(C)=O)C(=O)N[C@H]1CSSC[C@@H](C(=O)N(C)[C@H](C(N)=O)[C@@H](C)CC)NC(=O)[C@H](CCCNC(=N)N)NC(=O)[C@H](Cc2c[nH]cn2)NC(=O)[C@H](C)NC(=O)CN(C)C(=O)[C@H](Cc2c[nH]c3ccccc23)NC(=O)[C@H](CC(=O)O)NC(=O)[C@H](CCC(N)=O)NC(=O)[C@H](Cc2cn(C)c3ccccc23)NC(=O)[C@H](C(C)C)NC1=O [Cp20, Ac-Ile-[Cys-Val-Trp(Me)-Gln-Asp-Trp-Sar-Ala-His-Arg-Cys]-mIle-NH2, reference compound]	6.7 ± 2.9 10^−3 s^−1	260 ± 120 nM	9 h	< 0.01	0.93	0.16	0.97	kon (C3b; read-out: ka): 2.3e+06 ± 700000 M⁻¹ s⁻¹; improved affinity (C3): 10 fold
O=C([O-])CN(CCN(CC(=O)[O-])CC(COP(=O)([O-])OC1CCC(c2ccccc2)(c2ccccc2)CC1)N(CC(=O)[O-])CC(=O)[O-])CC(=O)[O-].[Gd+3].[Na+].[Na+].[Na+] (centres unmarked) [MS-325, gadofosveset trisodium]								intravascular half-life [4]: 18.5 ± 3 h; Kd (human serum albumin): 164000 nM
CC[C@H](C)[C@H](NC(=O)CCCCCOP(=O)(O)OC1CCC(c2ccccc2)(c2ccccc2)CC1)C(=O)N[C@H]1CSSC[C@@H](C(=O)N(C)[C@H](C(N)=O)[C@@H](C)CC)NC(=O)[C@H](CCCNC(=N)N)NC(=O)[C@H](Cc2c[nH]cn2)NC(=O)[C@H](C)NC(=O)CN(C)C(=O)[C@H](Cc2c[nH]c3ccccc23)NC(=O)[C@H](CC(=O)O)NC(=O)[C@H](CCC(N)=O)NC(=O)[C@H](Cc2cn(C)c3ccccc23)NC(=O)[C@H](C(C)C)NC1=O [ABM2-Cp20, ABM2-Ile-[Cys-Val-Trp(Me)-Gln-Asp-Trp-Sar-Ala-His-Arg-Cys]-mIle-NH2]		170 ± 110 nM		< 0.01	< 0.01	< 0.01	< 0.01	Kd (baboon albumin): 106000 ± 3000 nM; albumin binding site [5]: binds primarily to site II; solubility [6]: lower solubility

— patent US10213476B2, “Compstatin analogs with improved potency and pharmacokinetic properties” (The Trustees of the University of Pennsylvania, priority 2014, dated 2019)
